The text below walks through data of patent US11187660B2, “Fluorescent probes for monitoring voltage by photo-induced electron transfer” (The Regents of the University of California, priority 2011, dated 2021).

The structures appear in SMILES notation.

A short description of data set [1]: Absorbance and emission spectra in n-octanol. The class given is physicochemical. Here is the method:
VF2.4.Cl features an absorbance spectrum with a λmax in octanol (to simulate cellular membranes) centered at 527 nm (ε527=4×10^4 M^−1 cm^−1). Excitation of VF2.4.Cl at 527 nm results in emission centered at 540 nm (Φ=0.23) (FIG. 3).
UV absorbance and fluorescence spectra were recorded on a Cary 3E (Varian) and Fluorolog 2 (Spex) fluorimeter, respectively. Analytical, semi-preparative, and preparative HPLCs were performed on Agilent HPLCs, with Luna C18(2) columns (Phenomenex) using water (solvent A) and acetonitrile (solvent B) with 0.05% TFA as an additive. Low resolution ESI mass spectrometry was performed on an Agilent LC/MSD Trap XCT coupled to an Agilent HPLC. High resolution mass spectra were acquired on a ThermoFisher Orbitrap XL hybrid mass spectrometer. ^1H NMR spectra were collected in CDCl3 or d6-DMSO (Cambridge Isotope Laboratories, Cambridge, Mass.) at 25° C. on a 400 Varian Mercury Plus or Jeol ECA 500 spectrometer at the Department of Chemistry and Biochemistry NMR Facility at the University of California, San Diego. All chemical shifts are reported in the standard δ notation of parts per million using the peak of residual proton signals of CDCl3 or d6-DMSO as an internal reference.

The subject of the next data set is HEK cells. As to the kind of experiment: Speed of optical response to voltage steps in HEK cells. Format: cell-based, human. Conditions: 100 mV step from holding potential −60 mV. An excerpt:
Membrane voltage of cells loaded with VF1.4.Cl or VF2.4.Cl were controlled by making tight-seal whole-cell recordings. Cells were maintained at a holding potential of −60 mV and stepped for 50 ms to various depolarizing and hyperpolarizing potentials (FIG. 5A), while simultaneously acquiring epifluorescence images. For both sensors, depolarizing steps result in fluorescence increases while hyperpolarizing steps decrease fluorescence intensity, in keeping with our proposed mechanism. […] For di-4-ANEPPS, typical values are 0.08-0.12% per mV. […] To assess the speed of the optical response to voltage, VF2.4.Cl signals were monitored in response to voltage steps of 100 mV from a holding potential of −60 mV.
We characterized the voltage sensitivity of all three indicators by making tight-seal whole-cell recordings of HEK293 cells stained with the VF sensors. […] For all three dyes, depolarizing steps produced fluorescence increases, whereas hyperpolarizing steps produced fluorescence decreases, in keeping with the proposed PeT mechanism. The fluorescence response is linear over the range of −100 mV to +100 mV (FIG. 9C), with voltage sensitivities ΔF/F per 100 mV of 20±1% for VF1.4.Cl and 25±1% for VF2.4.Cl. […]

As for `CCCCN(CCCC)c1ccc(/C=C/c2ccc(/C=C/c3ccc(-c4c5cc(Cl)c(=O)cc-5oc5cc(O)c(Cl)cc45)c(S(=O)(=O)O)c3)cc2)cc1` [VF2.4.Cl, 5-(4-(4-(dibutylamino)styryl)styryl)-2-(2,7-dichloro-6-hydroxy-3-oxo-3H-xanthen-9-yl)benzenesulfonic acid], in data set [1], the “absorbance λmax” value is listed as 527 nm, the Φ was determined as 0.23 and the ε527 was found to be 40000 M⁻¹ cm⁻¹. The compound also returned an emission centered at in data set [1] (excitation at 527 nm) of 540 nm. Also, in the data set on HEK cells, the “τoff, optical” value is 147±19 μs and the “τon, optical” value worked out at 138±14 μs.
